Experimental data from PubChem BioAssay (NCI).
“And” between values parts separate entries of the source, which are not always exact repeats. Equal entries are not always repeated.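 Values below derive from 48-hour exposures of cells grown in 96-well plates, with endpoints linearly interpolated between the two concentrations bracketing the appropriate inhibition level. The concentration for 50% growth inhibition is given as GI50. The concentration for full growth arrest is given as TGI.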

System: SN12K1 renal
Assay: NCI tumour cell line growth inhibition, 48 h

`Nc1ccn([C@@H]2C=C(CO)[C@@H](O)[C@H]2O)c(=O)n1` was tested, and the GI50 was 0.0625 µM and the TGI was 83.8 µM and 160 µM.
